The values below come from PubChem BioAssay AID330 (DTP/NCI, 2004).

The assay has as its system P388 leukemia ip, CD2F1 mice, survival T/C. Briefly: NCI In Vivo Anticancer Drug Screen. Data for tumor model P388 Leukemia (intraperitoneal) in CD2F1 (CDF1) mice. The settings on record: endpoint: median survival time, higher = longer survival. A digest of the protocol:
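Mice carrying the transplanted tumor received test compound or vehicle. Survival was recorded in each group, and the value is the treated-group measurement divided by that of the vehicle-treated control group.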

The mark [1] stands for this setting: dose: 50.0 mg/kg/injection, schedule: Q01DX005 (ip), vehicle: saline with Tween-80.
Setting [2] is: dose: 100.0 mg/kg/injection, schedule: Q01DX005 (ip), vehicle: saline with Tween-80.
Setting [3] is: dose: 200.0 mg/kg/injection, schedule: Q01DX005 (ip), vehicle: saline with Tween-80.
Setting [4] is: dose: 50.0 mg/kg/injection, schedule: Q01DX009 (ip), vehicle: Klucel (hydroxypropylcellulose) (HPC).
[5] abbreviates: dose: 100.0 mg/kg/injection, schedule: Q01DX009 (ip), vehicle: Klucel (hydroxypropylcellulose) (HPC).
[6] abbreviates: dose: 200.0 mg/kg/injection, schedule: Q01DX009 (ip), vehicle: Klucel (hydroxypropylcellulose) (HPC).
[7] abbreviates: dose: 60.0 mg/kg/injection, schedule: Q01DX005 (ip), vehicle: Klucel (hydroxypropylcellulose) (HPC).
The mark [8] stands for this setting: dose: 120.0 mg/kg/injection, schedule: Q01DX005 (ip), vehicle: Klucel (hydroxypropylcellulose) (HPC).
[9] abbreviates: dose: 60.0 mg/kg/injection, schedule: Q01DX005 (ip), vehicle: saline with Tween-80.
Setting [10] is: dose: 120.0 mg/kg/injection, schedule: Q01DX005 (ip), vehicle: saline with Tween-80.
[11] abbreviates: dose: 240.0 mg/kg/injection, schedule: Q01DX005 (ip), vehicle: saline with Tween-80.

“And” between values parts separate entries of the source, which are not always exact repeats. Equal values may be shown once. Inconclusive results and toxic doses are left out.

Regarding `CC(C)(O)C1CC(=O)C(C)(C2C(O)CC3(C)C4CC=C5C(CCC(O)C5(C)C)C4(C)C(=O)CC23C)O1` (stereo not given), the T/C by setting is: (dose: 9.63 mg/kg/injection, schedule: Q01DX005 (ip), vehicle: saline + alcohol) 113 % of control; (dose: 19.25 mg/kg/injection, schedule: Q01DX005 (ip), vehicle: saline + alcohol) 102 % of control; (dose: 38.5 mg/kg/injection, schedule: Q01DX005 (ip), vehicle: saline + alcohol) 102 % of control; (dose: 77.0 mg/kg/injection, schedule: Q01DX005 (ip), vehicle: saline + alcohol) 97 % of control.
As for `N#Cc1c(-c2ccc(Cl)c(Cl)c2)c(-c2ccc(Cl)c(Cl)c2)nn(CCO)c1=O`, the T/C is 95 % of control (dose: 25.0 mg/kg/injection, schedule: Q04DX002 (ip), vehicle: distilled water + Tween-80); 93 % of control (dose: 50.0 mg/kg/injection, schedule: Q04DX002 (ip), vehicle: distilled water + Tween-80); 93 % of control (dose: 100.0 mg/kg/injection, schedule: Q04DX002 (ip), vehicle: distilled water + Tween-80); 87 % of control (dose: 200.0 mg/kg/injection, schedule: Q04DX002 (ip), vehicle: distilled water + Tween-80).
For the compound `Nc1nc(N)c2c(n1)NCN(O)C2`, the T/C reads like this: under setting [1], 97 % of control; under setting [2], 99 % of control; under setting [3], 100 % of control.
In the case of `O=c1[nH]cc([N+](=O)[O-])c(=O)[nH]1`, the T/C by setting is: (dose: 25.0 mg/kg/injection, schedule: Q01DX009 (ip), vehicle: Klucel (hydroxypropylcellulose) (HPC)) 94 % of control; under setting [4], 99 % of control; under setting [5], 95 % of control; (dose: 100.0 mg/kg/injection, schedule: Q01DX009 (ip), vehicle: distilled water + Tween-80) 102 % of control; under setting [6], 107 % of control; (dose: 200.0 mg/kg/injection, schedule: Q01DX009 (ip), vehicle: distilled water + Tween-80) 100 % of control. Where the note is “dose: 400.0 mg/kg/injection, schedule: Q01DX009 (ip), vehicle: distilled water + Tween-80”, the T/C is 99 % of control.
As for `O=c1oc2ccccc2c2c1cnn2-c1ccccc1`, the T/C was 103 % of control under setting [7]; 105 % of control under setting [8]; 104 % of control (dose: 240.0 mg/kg/injection, schedule: Q01DX005 (ip), vehicle: Klucel (hydroxypropylcellulose) (HPC)).
Turning to `CCN(CC)CCOc1ccc(C(C)=O)cc1`, the T/C is, setting by setting: (dose: 25.0 mg/kg/injection, schedule: Q01DX005 (ip), vehicle: saline with Tween-80) 99 % of control; under setting [1], 92 % of control; under setting [2], 101 % of control.
Take `COC(=O)C1=C(C)NC(=O)NC1c1ccc(OC)cc1` (stereo not given): the T/C was 95 % of control (dose: 100.0 mg/kg/injection, schedule: Q04DX003 (ip), vehicle: saline with Tween-80); 95 % of control (dose: 200.0 mg/kg/injection, schedule: Q04DX003 (ip), vehicle: saline with Tween-80); 100 % of control (dose: 400.0 mg/kg/injection, schedule: Q04DX003 (ip), vehicle: saline with Tween-80).
Take `CNC(=O)OCc1nc(SC)n(-c2ccccc2)c1COC(=O)NC`: the T/C was 99 % of control (dose: 12.5 mg/kg/injection, schedule: Q01DX005 (ip), vehicle: distilled water + Tween-80); 101 % of control (dose: 25.0 mg/kg/injection, schedule: Q01DX005 (ip), vehicle: distilled water + Tween-80); 99 % of control and 102 % of control and 92 % of control (dose: 50.0 mg/kg/injection, schedule: Q01DX005 (ip), vehicle: distilled water + Tween-80); 101 % of control and 106 % of control and 108 % of control (dose: 100.0 mg/kg/injection, schedule: Q01DX005 (ip), vehicle: distilled water + Tween-80); 113 % of control (dose: 200.0 mg/kg/injection, schedule: Q01DX005 (ip), vehicle: distilled water + Tween-80); 99 % of control (dose: 400.0 mg/kg/injection, schedule: Q01DX005 (ip), vehicle: distilled water + Tween-80).
As to `CC(=O)Nc1ccc(O)c(CN2CCN(c3ccccc3)CC2)c1`, the T/C is 102 % of control under setting [4], 103 % of control under setting [5] and 97 % of control under setting [6].
On to `CN=C(NC)c1ccc(NC(=O)/C=C\c2ccc(C(=O)Nc3ccc(C(=NC)NC)cc3)cc2)cc1`, for which the T/C is 172 % of control (dose: 3.13 mg/kg/injection, schedule: Q01DX009 (ip), vehicle: saline with Tween-80); 150 % of control (dose: 4.4 mg/kg/injection, schedule: Q04DX003 (ip), vehicle: saline with Tween-80); 113 % of control (dose: 6.25 mg/kg/injection, schedule: Q01DX009 (ip), vehicle: saline with Tween-80); 155 % of control (dose: 10.0 mg/kg/injection, schedule: Q04DX003 (ip), vehicle: saline with Tween-80); 95 % of control (dose: 12.5 mg/kg/injection, schedule: Q01DX009 (ip), vehicle: saline with Tween-80); 155 % of control (dose: 15.0 mg/kg/injection, schedule: Q04DX003 (ip), vehicle: saline with Tween-80).
For `CCCCC(CCCCCC(CCCC)C1NC(C)Cc2cc(OC)c(OC)cc21)C1NC(C)Cc2cc(OC)c(OC)cc21` (stereo not given), the T/C (dose: 6.25 mg/kg/injection, schedule: Q01DX005 (ip), vehicle: saline) is 99 % of control; the T/C (dose: 12.5 mg/kg/injection, schedule: Q01DX005 (ip), vehicle: saline) was 105 % of control; the T/C (dose: 25.0 mg/kg/injection, schedule: Q01DX005 (ip), vehicle: saline) is 90 % of control.
Consider `O=C(O)C1C(C(=O)O)C2(Cl)C(Cl)=C(Cl)C1(Cl)C2(Cl)Cl.[Cu+2]` (stereo not given), for which the T/C is 104 % of control (dose: 50.0 mg/kg/injection, schedule: Q01DX001 (ip), vehicle: saline sonified) and 118 % of control (dose: 100.0 mg/kg/injection, schedule: Q01DX001 (ip), vehicle: saline sonified).
In the case of `NC(=S)NNC(=O)c1cccs1`, the T/C by setting is: under setting [9], 108 % of control; under setting [10], 100 % of control; under setting [11], 99 % of control.
Regarding `Cc1cc2ncc(-c3ccccc3)nc2cc1C`, the T/C is, setting by setting: (dose: 25.0 mg/kg/injection, schedule: Q01DX001 (ip), vehicle: saline with Tween-80) 100 % of control; (dose: 50.0 mg/kg/injection, schedule: Q01DX001 (ip), vehicle: saline with Tween-80) 100 % of control; (dose: 100.0 mg/kg/injection, schedule: Q01DX001 (ip), vehicle: saline with Tween-80) 89 % of control and 90 % of control.
`C1CC[N-]CC1.C1CC[N-]CC1.[Cl][Cd][Cl]`: the T/C is, setting by setting: (dose: 0.2 mg/kg/injection, schedule: Q01DX009 (ip), vehicle: water) 95 % of control; (dose: 0.39 mg/kg/injection, schedule: Q01DX009 (ip), vehicle: water) 96 % of control; (dose: 0.78 mg/kg/injection, schedule: Q01DX009 (ip), vehicle: other) 90 % of control; (dose: 0.78 mg/kg/injection, schedule: Q01DX009 (ip), vehicle: water) 98 % of control; (dose: 1.56 mg/kg/injection, schedule: Q01DX009 (ip), vehicle: other) 90 % of control; (dose: 3.13 mg/kg/injection, schedule: Q01DX009 (ip), vehicle: other) 93 % of control.
Take `COC1=C(Br)C(=O)N/C1=C(\OC)c1ccccc1`: the T/C was 89 % of control under setting [9], 98 % of control under setting [10] and 89 % of control under setting [11].
Take `O=C(Nc1ccc(Cl)c(Cl)c1Cl)/C(Cl)=C1/Sc2ccccc2NC1=O`: the T/C reads like this: under setting [1], 108 % of control; under setting [2], 101 % of control; under setting [3], 101 % of control.
For `COc1cc2c(c3c1c(=O)c1ccc(F)cc1n3C)C=CC(C)(C)O2`, the T/C (dose: 50.0 mg/kg/injection, schedule: Q01DX005 (ip), vehicle: Klucel (hydroxypropylcellulose) (HPC)) is 98 % of control; the T/C (dose: 100.0 mg/kg/injection, schedule: Q01DX005 (ip), vehicle: Klucel (hydroxypropylcellulose) (HPC)) is 108 % of control; the T/C (dose: 200.0 mg/kg/injection, schedule: Q01DX005 (ip), vehicle: Klucel (hydroxypropylcellulose) (HPC)) is 109 % of control.
As for `CNC(=O)SC1=NS(=O)(=O)c2ccc(Cl)cc2N1`, the T/C is 110 % of control under setting [7] and 107 % of control under setting [8].
On to `COc1cc(C2c3cc4c(cc3OC(N3CCCC3)C2C)OCO4)cc(OC)c1OC` (stereo not given), for which the T/C under setting [9] is 90 % of control, the T/C under setting [10] is 93 % of control and the T/C under setting [11] is 104 % of control.
Regarding `Cc1cc(=O)oc2cc(OC(=O)Nc3ccc(Cl)cc3C(F)(F)F)ccc12`, the T/C runs as follows: under setting [9], 90 % of control; under setting [10], 95 % of control.
